Patent US20060270019A1, “Method for producing lactic acid bacterium culture containing bacteriocin and a method for preserving food products for by using it” (Ajinomoto Co., Inc., priority 2003, published 2006)
Positions of bridges follow the written chain, without caps; N, C: chain ends. Non-standard residues stand in square brackets, D forms with d. No end group written: not given here.

What was measured:
Type in all cases: cell-based
[1] = test system: Bacillus subtilis IAM1381; test: Bacteriocin as substitute for salt in soy sauce manufacturing process: viable cell count of contaminating bacterium; settings: soy sauce koji test, first day of fermentation up to day 7
Description: Soybean (10 g) and pure water (10 ml) were individually added into six Erlenmeyer flasks (200-ml volume) and sterilized in an autoclave at 120° C. for 30 minutes. After cooling, 0.04 g of koji mold(Purple 1, NO.1 bacterium for soy sauce) was added, and cultivated statically at 30° C. for 2 days. 40 ml of sterile pure water were added to cultivated sample (Sample No.1), 40 ml of salt solution which adjusted the salt content of the sample to 18% to Sample No.2, 40 ml of a culture supernatant of Lactococcus lactis NCIMB702054 (the bacterium producing nisin Z) to Sample No.3 and 40 ml of a culture supernatant of Weissella sp. AJ110263 (FERM BP-10474) to Sample No.4, 40 ml of a culture supernatant of Pediococcus pentosaseceus JCM5885 to Sample 5 and 40 ml of a culture supernatant of Lactobacillus salivarius JCM1231 to Sample 6. The resulting mixtures were then adjusted to pH 6.5 to 7.0, using 6N hydrochloric acid and 6N NaOH passed through a filter.
200 μl of Bacillus subtilis IAM1381 cultivated in the TSBYE medium by a shaker at 30° C. for 20 hours was additionally inoculated, mixed thoroughly and cultivated at 30° C. On days 1, 2 and 7 of the cultivation, the broth was collected to count the viable cells of Bacillus subtilis IAM1381 on the GAM agar medium (GAM bouillon “NISSUI”, Nissui Pharmaceutical Co., Ltd.). […]

[2] = test system: Listeria innocua ATCC33090; test: Aging of ground beef inoculated with Listeria: viable cell count; settings: first day of aging up to day 7
From the text: The broths obtained by cultivating Lactococcus lactis NCIMB702054 (a strain producing NisinZ) and Weissella sp.AJ110263 (FERM BP-10474) in MRS culture media were adjusted to pH 5.5 with sodium hydroxide. Subsequently, the bacteria were removed from the pH adjusted culture liquid by centrifucation to obtain a supernatant. The broths containing lactic acid bacteria and the supernatants were used in the experiment described below.
5 g of ground meat of Black hair Japanese beef were individually put into six aseptic Falcon tubes (Becton Dickinson Co.50-ml volume) and 5 ml of saline were added to the meat(Sample No.1), 5 ml of 18% salt solution to Sample No.2, 5 ml of the supernatant of Lactococcus lactis NCIMB702054 to Sample No.3, 5 ml of the broth of Lactococcus lactis NCIMB702054 to Sample No.4, 5 ml of the supernatant of Weissella sp. AJ110263 to Sample No.5, 5 ml of the broth of Weissella sp. AJ110263 to Sample No.6. Further, Listeria innocua ATCC33090, statically cultivated in TSBYE medium at 37° C. for 24 hours, was added to the samples in the amount of 10^8 cfu/ml and the samples were aged at ambient temperature. The samples aged for one day and seven days were collected to count the viable cells of Listeria innocua ATCC33090 in the Listeria selection medium (Oxoid Inc.).

[3] = test system: Lactobacillus sakei strain JCM1157; test: Inhibitory zone of lactic acid bacteria on MRS agar plate containing protease (Umamizyme G), overlaid with indicator strain; settings: Protease 0 U/ml, Nisin A spotted as 10 μl of 1000 IU/ml
Description: The collected lactic acid bacteria are cultivated in the heretofore described manner. Then, the lactic acid bacteria are inoculated and cultivated for 24 hours on a plate of MRS agar medium to which filtrated Umamizyme G (a protease derived from Aspergillus oryzaeproteases; Amano Enzyme Co) is added. Subsequently, the Lactobacilli AOAC medium (Table 3) into which an indicator strain is initially mixed is overlaid on the plate and cultivated for 24 hours, to form an inhibitory zone of the indicator strain.
Weissella sp. AJ110263 (FERM BP-10474) separated from fermented milk Matsoon and Pediococcus pentosaceus JCM5885, Pediococcus pentosaceus JCM5890, Lactobacillus plantarum JCM1149 and Lactobacillus salivarius obtained from the type cultures were initially cultivated followed by cultivation in the MRS medium (Table 1). […]
Lactococcus lactis NCDO497 (a nisinA producer) and Lactococcus lactis NCIMB702054 (a nisin Z producer) were cultivated in the MRS medium at 30° C. In the same manner as in Example 1, the antimicrobial activity was evaluated, using Lactobacillus sakei strain JCM1157 as an indicator strain.
Additionally, the antimicrobial activity was evaluated, by spotting 10 μl of a 1000 IU/ml solution of Nisin A, ICN Biomedical Inc. instead of using the nisin producer, on the plate of the MRS agar medium.

Compound | contamination by Bacillus subtilis IAM1381 (in words) [1] | contaminating Listeria innocua ATCC33090 count [2] | Diameter(mm) of Inhibitory Zone of Strain not producing PRB [3] [mm]
[Cl-].[Na+] [salt, sodium chloride] | no contamination occurred | ≥ 10^5 cfu/ml | –
Nisin A (I[dehydrobutyrine]SI[dehydroalanine]LCTPGCKTGALMGCNMKTATCHCSIHV[dehydroalanine]K; bridge 23-26, 13-19, 8-11, 25-28, 3-7; not fully specified (residues 3, 8, 13, 23, 25, bridges); UniProt P13068 24-57, looked up) [Nisin A, ICN Biomedical Inc., bacteriocin spotted instead of a nisin producer] | – | – | 30
